Results: patent US20260327191A1, “GSK3a INHIBITORS AND METHODS OF USE THEREOF” (Blueprint Medicines Corporation, priority 2023, published 2026)
pIC50: −log10 of the molar value.

Key:
human GSK3α = molecular target: T1, human GSK3α (Homo sapiens, UniProt P49840); test: In vitro enzymatic activity assay, GSK3α; format: biochemical; settings: 1.0 mM ATP, 1.0 μM peptide substrate, 120 min, 25° C, read-out: Enzyme GSK3α (IC50)
T1 construct: Full length human GSK3α or GSK3B expressed as N-terminal GST fusion proteins; GST (N); purchased Carna Biosciences (Japan); host or cells: baculovirus host
Procedure: (§1) Full length human GSK3α or GSK3B expressed as N-terminal GST fusion proteins in baculovirus host were purchased from Carna Biosciences (Japan). The kinase was pre-incubated with ATP (adenosine-5′-triphosphate) for 45 min, then incubated with tested compounds for another 45 min in assay buffer that contains 100 mM HEPES (N-2-hydroxyethylpiperazine-N′-2-ethanesulfonic acid), pH 7.5, 10 mM MgCl2, 1.0 mM DTT, and 0.015% Briji-35. […] Percent inhibition was plotted against compound concentration to generate 10-point dose response curve with 3-fold serial dilution starting from 10 μM. IC50 value was determined from the 4-parameter logistic curve fitting.

GSK3B [1] = molecular target: T2, GSK3B (Homo sapiens, UniProt P49841); test: NanoBRET cellular target engagement assay, Nanoluc-GSK3B in HEK293 cells; format: cell-based; set-up: expressed in transfected cells; settings: NanoBRET GSK3β IC50, HEK293 cells, tracer K-8, 2 hours, 37° C
Procedure: (§2) In the assay, HEK293 cells stably expressing either Nanoluc-GSK3A or Nanoluc-GSK3B were maintained in culture media and seeded, using a multidrop dispenser, at a density of 5×10^3 cells per well in 384-well white plates with 100 ng/ml doxycycline (Sigma) overnight.
(§3) Compound was first diluted in DMSO to generate a 9-point serial dilution then diluted to 10× final concentration in Opti-MEM™ (Gibco). After overnight incubation, cell medium was aspirated from the seeded cells using a microplate automatic washer, then 27 μL of pre-warmed Opti-MEM™ with kinase tracer (K-8) and 3 μL of Opti-MEM™ diluted DMSO or compounds were added per well. Plates were protected from light, mixed in an orbital shaker for 3 min at RT and incubated at 37° C., 5% CO2 in a humidified incubator for 2 hours. After acclimation at RT for 15 min, 15 μL of 3× complete NanoBRET™ Nano-Glo Substrate/Inhibitor (Promega) was added per well. Plates were mixed in an orbital shaker for 3 min at RT and incubated for an additional 30 min. Donor emission at 460 nm and acceptor emission at 647 nm were measured in EnVision multilabel plate reader (Perkin Elmer).

GSK3B [2] = molecular target: T2, GSK3B; test: In vitro enzymatic activity assay, GSK3β; format: biochemical; set-up: Full length human GSK3α or GSK3B expressed as N-terminal GST fusion proteins; GST (N); purchased Carna Biosciences (Japan); host or cells: baculovirus host; settings: 1.0 mM ATP, 1.0 μM peptide substrate, 120 min, 25° C, read-out: Enzyme GSK3β (IC50)
Procedure: as §1

GSK3A = molecular target: T3, GSK3A (Homo sapiens, UniProt P49840); test: NanoBRET cellular target engagement assay, Nanoluc-GSK3A in HEK293 cells; format: cell-based; settings: NanoBRET GSK3α IC50, HEK293 cells, tracer K-8, 2 hours, 37° C
T3 construct: expressed in transfected cells
Procedure: as §2, §3

T2 sequence (P49841 whole entry): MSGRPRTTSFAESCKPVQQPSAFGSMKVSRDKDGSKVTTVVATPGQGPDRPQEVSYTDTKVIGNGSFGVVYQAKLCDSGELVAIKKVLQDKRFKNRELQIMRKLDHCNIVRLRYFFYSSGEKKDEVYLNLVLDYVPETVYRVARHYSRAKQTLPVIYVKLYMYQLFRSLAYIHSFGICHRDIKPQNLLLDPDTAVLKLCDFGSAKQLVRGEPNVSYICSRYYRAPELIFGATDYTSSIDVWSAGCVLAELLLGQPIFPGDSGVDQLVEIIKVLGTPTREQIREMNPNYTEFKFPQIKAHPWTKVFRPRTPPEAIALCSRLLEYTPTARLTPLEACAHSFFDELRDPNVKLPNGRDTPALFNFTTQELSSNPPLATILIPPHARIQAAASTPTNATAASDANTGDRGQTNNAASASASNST
T3 sequence (P49840 whole entry): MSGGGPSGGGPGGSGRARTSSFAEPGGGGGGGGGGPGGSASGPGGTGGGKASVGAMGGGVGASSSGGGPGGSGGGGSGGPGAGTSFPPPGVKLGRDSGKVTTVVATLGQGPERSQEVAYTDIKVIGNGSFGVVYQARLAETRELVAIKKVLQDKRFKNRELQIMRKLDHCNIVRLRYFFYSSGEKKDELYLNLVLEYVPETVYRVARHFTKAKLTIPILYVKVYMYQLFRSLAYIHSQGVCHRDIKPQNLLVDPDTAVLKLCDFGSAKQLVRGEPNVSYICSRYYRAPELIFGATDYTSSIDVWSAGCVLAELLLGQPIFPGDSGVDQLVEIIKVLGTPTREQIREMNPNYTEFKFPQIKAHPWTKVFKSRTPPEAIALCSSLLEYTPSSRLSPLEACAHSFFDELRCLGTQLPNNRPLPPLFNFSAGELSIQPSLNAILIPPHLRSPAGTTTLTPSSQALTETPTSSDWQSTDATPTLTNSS
T1 sequence (P49840 whole entry, the tested form may be a part): as the sequence (P49840 whole entry) above

| SMILES | pIC50 (human GSK3α) | pIC50 (GSK3B [1]) | pIC50 (GSK3B [2]) | pIC50 (GSK3A) |
| --- | --- | --- | --- | --- |
| Cc1cc(C#N)cc(Cl)c1-n1cnc(N)c(C(=O)Nc2cccc([C@@H](C)N)c2)c1=O (atropisomer, axis not shown) [Example 8, (R)-4-amino-N-(3-(1-aminoethyl)phenyl)-1-((S)-2-chloro-4-cyano-6-methylphenyl)-6-oxo-1,6-dihydropyrimidine-5-carboxamide] | 8.32 | 6.77 | 6.69 | 8.48 |
| CCNCc1cccc(NC(=O)c2c(N)ncn(-c3c(C)cc(C(F)F)cc3Cl)c2=O)c1 (atropisomer, axis not shown) [Example 11, 4-amino-1-((S)-2-chloro-4-(difluoromethyl)-6-methylphenyl)-N-(3-((ethylamino)methyl)phenyl)-6-oxo-1,6-dihydropyrimidine-5-carboxamide] | 7.84 | 6.60 | 6.19 | 8.39 |
| CN[C@H](C)c1cccc(NC(=O)c2c(N)ncn(-c3c(C)cc(C(F)(F)F)cc3Cl)c2=O)c1 (atropisomer, axis not shown) [Example 33, 4-amino-1-((S)-2-chloro-6-methyl-4-(trifluoromethyl)phenyl)-N-(3-((R)-1-(methylamino)ethyl)phenyl)-6-oxo-1,6-dihydropyrimidine-5-carboxamide] | 8.19 | 6.34 | 6.46 | 8.08 |
| COc1cc(C)c(-n2cnc(N)c(C(=O)Nc3cccc([C@@H]4CCCN4)c3)c2=O)c(Cl)c1 (atropisomer, axis not shown) [Example 36, (S)-4-amino-1-((S)-2-chloro-4-methoxy-6-methylphenyl)-6-oxo-N-(3-(pyrrolidin-2-yl)phenyl)-1,6-dihydropyrimidine-5-carboxamide] | 8.14 | 6.54 | 6.52 | 8.36 |
| CCOc1cc(C)c(-n2cnc(N)c(C(=O)Nc3cccc([C@H](N)COC)c3)c2=O)c(Cl)c1 (atropisomer, axis not shown) [Example 72, (S)-4-amino-N-(3-(1-amino-2-methoxyethyl)phenyl)-1-((S)-2-chloro-4-ethoxy-6-methylphenyl)-6-oxo-1,6-dihydropyrimidine-5-carboxamide] | 8.12 | 6.42 | 6.33 | 8.29 |
| [2H]C([2H])([2H])NC(C)c1cncc(NC(=O)c2c(N)ncn(-c3c(C)cc(OC)cc3Cl)c2=O)c1 (single isomer, unassigned) [Example 4, (R)-4-amino-1-((S)-2-chloro-4-methoxy-6-methylphenyl)-N-(5-(1-((methyl-d3)amino)ethyl)pyridin-3-yl)-6-oxo-1,6-dihydropyrimidine-5-carboxamide or (S)-4-amino-1-((S)-2-chloro-4-methoxy-6-methylphenyl)-N-(5-(1-((methyl-d3)amino)ethyl)pyridin-3-yl)-6-oxo-1,6-dihydropyrimidine-5-carboxamide] | 8.43 | 6.96 | 6.73 | 8.85 |
| CNC(C)c1cncc(NC(=O)c2c(N)ncn(-c3c(Cl)cc(C#N)cc3Cl)c2=O)c1 (single isomer, unassigned) [Example 9, (R)-4-amino-1-(2,6-dichloro-4-cyanophenyl)-N-(5-(1-(methylamino)ethyl)pyridin-3-yl)-6-oxo-1,6-dihydropyrimidine-5-carboxamide or (S)-4-amino-1-(2,6-dichloro-4-cyanophenyl)-N-(5-(1-(methylamino)ethyl)pyridin-3-yl)-6-oxo-1,6-dihydropyrimidine-5-carboxamide] | 8.02 | 6.37 | 6.18 | 8.13 |

The remaining molecules from weak to strong by pIC50 (human GSK3α), led by results:

| pIC50 (human GSK3α) | pIC50 (GSK3B [1]) | pIC50 (GSK3B [2]) | pIC50 (GSK3A) | SMILES |
| --- | --- | --- | --- | --- |
| 8.12 | 6.32 | 6.47 | 8.15 | COC[C@@H](N)c1cccc(NC(=O)c2c(N)ncn(-c3c(Cl)cccc3C(F)F)c2=O)c1 (atropisomer, axis not shown) [Example 7, (S)-4-amino-N-(3-(1-amino-2-methoxyethyl)phenyl)-1-((S)-2-chloro-6-(difluoromethyl)phenyl)-6-oxo-1,6-dihydropyrimidine-5-carboxamide] |
| 8.15 | 6.48 | 6.40 | 8.31 | CN[C@H](C)c1cccc(NC(=O)c2c(N)ncn(-c3c(C)cc(OC)cc3Cl)c2=O)c1 (atropisomer, axis not shown) [Example 2, (R)-4-amino-1-((S)-2-chloro-4-methoxy-6-methylphenyl)-N-(3-(1-(methylamino)ethyl)phenyl)-6-oxo-1,6-dihydropyrimidine-5-carboxamide] |
| 8.18 | 6.40 | 6.46 | 8.30 | CN[C@H](C)c1cccc(NC(=O)c2c(N)ncn(-c3c(C)cccc3Cl)c2=O)c1 (atropisomer, axis not shown) [Example 3, (R)-4-amino-1-((S)-2-chloro-6-methylphenyl)-N-(3-(1-(methylamino)ethyl)phenyl)-6-oxo-1,6-dihydropyrimidine-5-carboxamide] |
| 8.20 | 6.45 | 6.42 | 8.32 | CCOc1cc(C)c(-n2cnc(N)c(C(=O)Nc3cccc([C@@H](C)NC)c3)c2=O)c(Cl)c1 (atropisomer, axis not shown) [Example 71, (R)-4-amino-1-((S)-2-chloro-4-ethoxy-6-methylphenyl)-N-(3-(1-(methylamino)ethyl)phenyl)-6-oxo-1,6-dihydropyrimidine-5-carboxamide] |
| 8.32 | 6.59 | 6.53 | 8.54 | COC[C@@H](N)c1cccc(NC(=O)c2c(N)ncn(-c3c(C)cc(C#N)cc3Cl)c2=O)c1 (atropisomer, axis not shown) [Example 42, (S)-4-amino-N-(3-(1-amino-2-methoxyethyl)phenyl)-1-((S)-2-chloro-4-cyano-6-methylphenyl)-6-oxo-1,6-dihydropyrimidine-5-carboxamide] |
| 8.44 | 6.61 | 6.77 | 8.44 | COC[C@@H](N)c1cccc(NC(=O)c2c(N)ncn(-c3c(C)cc(OC)cc3Cl)c2=O)c1 (atropisomer, axis not shown) [Example 1, (S)-4-amino-N-(3-(1-amino-2-methoxyethyl)phenyl)-1-((S)-2-chloro-4-methoxy-6-methylphenyl)-6-oxo-1,6-dihydropyrimidine-5-carboxamide] |
| 8.52 | – | – | 8.70 | Cc1cc(C(F)CF)cc(C)c1-n1cnc(N)c(C(=O)Nc2cncc([C@H]3CCCCN3)c2)c1=O (single isomer, unassigned) [Example 111, 4-amino-1-(4-((R)-1,2-difluoroethyl)-2,6-dimethylphenyl)-6-oxo-N-(5-((R)-piperidin-2-yl)pyridin-3-yl)-1,6-dihydropyrimidine-5-carboxamide or 4-amino-1-(4-((S)-1,2-difluoroethyl)-2,6-dimethylphenyl)-6-oxo-N-(5-((R)-piperidin-2-yl)pyridin-3-yl)-1,6-dihydropyrimidine-5-carboxamide] |
